Measured values: ChEMBL document CHEMBL1134827, “Design and synthesis of novel 2,3-dihydro-1H-isoindoles with high affinity and selectivity for the dopamine D3 receptor” (Bioorg Med Chem Lett, 2001)

Experiments:
[1] = Evaluated for the low clearance in rat (in vivo); format: ADME, organism-based; conditions: blood, read-out: CLb
[2] = biological target: 5-hydroxytryptamine receptor 1B (Homo sapiens, UniProt P28222); experiment: Evaluated for the binding affinity to 5-hydroxytryptamine 1B receptor
D(3) dopamine receptor = D(3) dopamine receptor (Homo sapiens, UniProt P35462); experiment: Displacement of [125I]iodosulpiride from human Dopamine receptor D3 expressed in CHO cells; format: cell-based
[3] = biological target: T1, 5-hydroxytryptamine receptor 2C (Homo sapiens, UniProt P28335); experiment: Evaluated for the binding affinity to 5-hydroxytryptamine 2C receptor
T1 sequence (P28335 whole entry): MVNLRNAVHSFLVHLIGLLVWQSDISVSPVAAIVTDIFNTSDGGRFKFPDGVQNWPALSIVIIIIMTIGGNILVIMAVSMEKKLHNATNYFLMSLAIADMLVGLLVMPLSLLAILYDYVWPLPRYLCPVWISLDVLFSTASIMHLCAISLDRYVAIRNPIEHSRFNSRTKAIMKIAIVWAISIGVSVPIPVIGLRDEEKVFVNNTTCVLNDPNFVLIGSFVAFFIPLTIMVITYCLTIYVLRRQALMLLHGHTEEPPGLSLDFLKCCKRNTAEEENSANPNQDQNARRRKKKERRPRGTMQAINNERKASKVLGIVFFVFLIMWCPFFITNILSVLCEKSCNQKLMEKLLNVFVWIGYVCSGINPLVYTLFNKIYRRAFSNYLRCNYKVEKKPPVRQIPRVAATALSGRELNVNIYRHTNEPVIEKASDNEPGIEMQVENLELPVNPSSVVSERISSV

[4] = biological target: T2, Alpha-1B adrenergic receptor (Homo sapiens, UniProt P35368); experiment: Evaluated for the binding affinity to alpha 1B receptor
T2 sequence (P35368 whole entry): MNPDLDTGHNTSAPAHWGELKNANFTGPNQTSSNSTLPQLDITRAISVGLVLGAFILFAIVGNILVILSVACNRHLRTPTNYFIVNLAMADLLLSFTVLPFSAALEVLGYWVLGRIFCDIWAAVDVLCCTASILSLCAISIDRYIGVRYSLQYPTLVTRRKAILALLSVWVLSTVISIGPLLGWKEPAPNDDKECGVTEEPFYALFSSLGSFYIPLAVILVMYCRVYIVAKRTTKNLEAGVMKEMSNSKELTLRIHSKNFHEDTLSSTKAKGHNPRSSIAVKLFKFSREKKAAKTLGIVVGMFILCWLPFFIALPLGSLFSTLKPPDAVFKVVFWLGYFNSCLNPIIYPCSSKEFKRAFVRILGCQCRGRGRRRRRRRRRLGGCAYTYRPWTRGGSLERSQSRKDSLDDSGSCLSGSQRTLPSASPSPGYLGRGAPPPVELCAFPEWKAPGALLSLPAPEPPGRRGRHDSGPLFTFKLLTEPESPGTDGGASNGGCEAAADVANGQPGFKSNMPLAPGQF

[5] = biological target: T3, 5-hydroxytryptamine receptor 1A (Homo sapiens, UniProt P08908); experiment: Evaluated for the binding affinity to 5-hydroxytryptamine 1A receptor
T3 sequence (P08908 whole entry): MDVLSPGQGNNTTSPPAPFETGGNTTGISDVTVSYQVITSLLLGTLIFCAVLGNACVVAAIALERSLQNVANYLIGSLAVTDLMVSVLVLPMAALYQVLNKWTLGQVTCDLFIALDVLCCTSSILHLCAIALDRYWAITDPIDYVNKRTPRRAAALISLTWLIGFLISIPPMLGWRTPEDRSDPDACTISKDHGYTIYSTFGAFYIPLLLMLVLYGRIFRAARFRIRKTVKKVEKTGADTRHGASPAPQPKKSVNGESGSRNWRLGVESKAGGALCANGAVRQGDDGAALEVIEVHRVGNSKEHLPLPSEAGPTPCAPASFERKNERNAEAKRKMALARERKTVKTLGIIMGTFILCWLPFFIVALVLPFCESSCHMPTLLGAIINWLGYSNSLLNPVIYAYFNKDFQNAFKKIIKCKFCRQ

[6] = biological target: 5-hydroxytryptamine receptor 1D (Homo sapiens, UniProt P28221); experiment: Evaluated for the binding affinity against 5-hydroxytryptamine 1D receptor
[7] = biological target: 5-hydroxytryptamine receptor 2B (Homo sapiens, UniProt P41595); experiment: Evaluated for the binding affinity to 5-HT 2B receptor
[8] = biological target: 5-hydroxytryptamine receptor 6 (Homo sapiens, UniProt P50406); experiment: Evaluated for the binding affinity towards 5-hydroxytryptamine 6 receptor
[9] = biological target: 5-hydroxytryptamine receptor 7 (Homo sapiens, UniProt P34969); experiment: Evaluated for the binding affinity to 5-hydroxytryptamine 7 receptor
[10] = Evaluated for the bioavailability in rat (in vivo); format: ADME, organism-based
[11] = Evaluated for the half life in rat (in vivo); format: ADME, organism-based
[12] = biological target: D(3) dopamine receptor (Rattus norvegicus) (UniProt P19020); experiment: Antagonistic activity at D3 receptor using in vitro functional assay
[13] = biological target: 5-hydroxytryptamine receptor 2A (Homo sapiens, UniProt P28223); experiment: Evaluated for the binding affinity towards 5-hydroxytryptamine 2A receptor
D(2) dopamine receptor = D(2) dopamine receptor (Homo sapiens, UniProt P14416); experiment: Displacement of [125I]iodosulpiride from human Dopamine receptor D2 expressed in CHO cells; format: cell-based
Chain of D(2) dopamine receptor (P14416 whole entry): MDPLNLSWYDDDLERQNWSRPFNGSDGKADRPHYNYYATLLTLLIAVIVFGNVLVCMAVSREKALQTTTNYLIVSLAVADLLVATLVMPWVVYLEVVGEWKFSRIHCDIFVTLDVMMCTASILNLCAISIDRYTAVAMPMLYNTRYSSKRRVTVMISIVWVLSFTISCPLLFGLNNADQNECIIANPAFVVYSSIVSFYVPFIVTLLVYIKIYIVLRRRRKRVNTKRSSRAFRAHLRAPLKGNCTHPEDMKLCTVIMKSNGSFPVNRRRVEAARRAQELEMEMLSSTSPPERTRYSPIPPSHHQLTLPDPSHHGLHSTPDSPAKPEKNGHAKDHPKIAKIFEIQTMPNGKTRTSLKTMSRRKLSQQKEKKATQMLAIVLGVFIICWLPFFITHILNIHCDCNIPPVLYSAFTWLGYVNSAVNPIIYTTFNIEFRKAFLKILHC

Chain of D(3) dopamine receptor (P35462 whole entry): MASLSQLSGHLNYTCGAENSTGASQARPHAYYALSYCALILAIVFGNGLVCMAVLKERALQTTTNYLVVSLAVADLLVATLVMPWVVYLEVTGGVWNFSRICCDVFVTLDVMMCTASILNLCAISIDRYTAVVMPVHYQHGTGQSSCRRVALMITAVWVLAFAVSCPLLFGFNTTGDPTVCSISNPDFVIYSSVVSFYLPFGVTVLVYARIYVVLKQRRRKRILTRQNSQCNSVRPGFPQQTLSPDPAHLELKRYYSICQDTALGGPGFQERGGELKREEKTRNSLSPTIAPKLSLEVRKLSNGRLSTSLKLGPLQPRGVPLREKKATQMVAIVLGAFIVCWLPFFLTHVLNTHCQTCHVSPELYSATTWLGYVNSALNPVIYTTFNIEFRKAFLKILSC
Chain of 5-hydroxytryptamine receptor 1D (P28221 whole entry): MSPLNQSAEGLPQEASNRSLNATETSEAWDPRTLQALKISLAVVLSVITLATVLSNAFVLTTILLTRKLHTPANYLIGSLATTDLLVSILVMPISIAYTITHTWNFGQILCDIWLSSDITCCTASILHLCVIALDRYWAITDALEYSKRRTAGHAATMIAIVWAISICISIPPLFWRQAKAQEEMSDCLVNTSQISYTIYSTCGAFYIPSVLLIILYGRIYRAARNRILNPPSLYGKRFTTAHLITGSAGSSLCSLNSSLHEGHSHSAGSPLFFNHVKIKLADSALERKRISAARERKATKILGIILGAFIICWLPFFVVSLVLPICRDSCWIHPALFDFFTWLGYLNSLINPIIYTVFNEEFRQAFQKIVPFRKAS
Chain of 5-hydroxytryptamine receptor 6 (P50406 whole entry): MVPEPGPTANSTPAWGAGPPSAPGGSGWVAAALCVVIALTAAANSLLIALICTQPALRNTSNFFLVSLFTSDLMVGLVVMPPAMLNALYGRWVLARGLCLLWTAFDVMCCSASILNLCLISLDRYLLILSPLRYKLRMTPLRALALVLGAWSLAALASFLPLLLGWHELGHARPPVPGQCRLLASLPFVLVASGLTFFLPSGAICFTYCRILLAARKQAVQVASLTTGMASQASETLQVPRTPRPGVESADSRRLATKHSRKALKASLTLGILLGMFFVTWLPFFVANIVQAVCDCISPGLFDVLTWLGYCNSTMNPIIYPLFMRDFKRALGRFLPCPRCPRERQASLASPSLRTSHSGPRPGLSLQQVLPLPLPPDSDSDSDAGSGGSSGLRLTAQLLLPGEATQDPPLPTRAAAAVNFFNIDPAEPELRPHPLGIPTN
Chain of 5-hydroxytryptamine receptor 2A (P28223 whole entry): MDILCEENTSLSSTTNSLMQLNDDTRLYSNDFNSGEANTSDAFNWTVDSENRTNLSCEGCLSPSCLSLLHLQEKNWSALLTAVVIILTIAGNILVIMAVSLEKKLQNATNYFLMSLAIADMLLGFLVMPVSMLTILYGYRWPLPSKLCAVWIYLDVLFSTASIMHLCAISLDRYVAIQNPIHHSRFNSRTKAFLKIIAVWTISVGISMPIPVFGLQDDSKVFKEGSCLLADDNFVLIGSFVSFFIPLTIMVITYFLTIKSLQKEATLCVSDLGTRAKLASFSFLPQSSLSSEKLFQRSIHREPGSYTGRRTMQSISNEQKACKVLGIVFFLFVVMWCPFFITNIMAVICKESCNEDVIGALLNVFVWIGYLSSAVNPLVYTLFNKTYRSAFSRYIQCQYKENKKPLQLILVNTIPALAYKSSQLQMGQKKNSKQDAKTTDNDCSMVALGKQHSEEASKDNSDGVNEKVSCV
Chain of 5-hydroxytryptamine receptor 1B (P28222 whole entry): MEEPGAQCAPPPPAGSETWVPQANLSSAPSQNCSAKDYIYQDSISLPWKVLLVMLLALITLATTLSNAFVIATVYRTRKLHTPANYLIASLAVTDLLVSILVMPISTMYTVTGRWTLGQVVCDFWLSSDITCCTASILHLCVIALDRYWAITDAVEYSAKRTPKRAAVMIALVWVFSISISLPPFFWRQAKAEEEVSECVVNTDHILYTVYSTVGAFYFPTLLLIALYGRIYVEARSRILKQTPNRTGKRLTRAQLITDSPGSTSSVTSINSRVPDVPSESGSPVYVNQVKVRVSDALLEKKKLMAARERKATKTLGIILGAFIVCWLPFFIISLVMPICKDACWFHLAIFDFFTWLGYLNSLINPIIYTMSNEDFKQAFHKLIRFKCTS
Chain of 5-hydroxytryptamine receptor 2B (P41595 whole entry): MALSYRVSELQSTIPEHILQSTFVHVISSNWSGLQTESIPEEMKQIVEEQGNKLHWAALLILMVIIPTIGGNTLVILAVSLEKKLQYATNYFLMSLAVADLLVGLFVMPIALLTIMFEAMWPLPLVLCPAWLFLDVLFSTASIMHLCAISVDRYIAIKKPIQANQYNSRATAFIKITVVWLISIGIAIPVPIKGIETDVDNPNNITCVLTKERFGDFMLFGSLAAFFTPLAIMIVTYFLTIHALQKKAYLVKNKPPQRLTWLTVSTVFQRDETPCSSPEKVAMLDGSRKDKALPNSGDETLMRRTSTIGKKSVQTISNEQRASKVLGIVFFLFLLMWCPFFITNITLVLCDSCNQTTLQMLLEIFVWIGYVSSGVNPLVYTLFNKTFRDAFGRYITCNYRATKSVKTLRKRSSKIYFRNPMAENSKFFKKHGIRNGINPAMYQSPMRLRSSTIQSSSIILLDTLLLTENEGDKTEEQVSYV
Chain of 5-hydroxytryptamine receptor 7 (P34969 whole entry): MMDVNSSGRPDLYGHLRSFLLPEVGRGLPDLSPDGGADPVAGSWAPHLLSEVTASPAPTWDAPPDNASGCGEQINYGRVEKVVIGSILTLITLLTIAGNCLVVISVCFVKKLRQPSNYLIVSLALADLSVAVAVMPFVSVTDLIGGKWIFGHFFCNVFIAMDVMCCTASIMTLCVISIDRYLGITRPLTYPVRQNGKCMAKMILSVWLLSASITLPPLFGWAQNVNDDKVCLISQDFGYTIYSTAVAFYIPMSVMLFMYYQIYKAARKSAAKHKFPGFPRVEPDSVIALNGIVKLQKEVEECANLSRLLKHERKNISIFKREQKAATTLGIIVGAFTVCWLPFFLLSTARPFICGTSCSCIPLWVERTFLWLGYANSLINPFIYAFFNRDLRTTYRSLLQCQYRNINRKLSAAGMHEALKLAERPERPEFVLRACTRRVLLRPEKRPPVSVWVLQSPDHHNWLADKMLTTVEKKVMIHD
Chain of D(3) dopamine receptor (Rattus norvegicus) (P19020 whole entry): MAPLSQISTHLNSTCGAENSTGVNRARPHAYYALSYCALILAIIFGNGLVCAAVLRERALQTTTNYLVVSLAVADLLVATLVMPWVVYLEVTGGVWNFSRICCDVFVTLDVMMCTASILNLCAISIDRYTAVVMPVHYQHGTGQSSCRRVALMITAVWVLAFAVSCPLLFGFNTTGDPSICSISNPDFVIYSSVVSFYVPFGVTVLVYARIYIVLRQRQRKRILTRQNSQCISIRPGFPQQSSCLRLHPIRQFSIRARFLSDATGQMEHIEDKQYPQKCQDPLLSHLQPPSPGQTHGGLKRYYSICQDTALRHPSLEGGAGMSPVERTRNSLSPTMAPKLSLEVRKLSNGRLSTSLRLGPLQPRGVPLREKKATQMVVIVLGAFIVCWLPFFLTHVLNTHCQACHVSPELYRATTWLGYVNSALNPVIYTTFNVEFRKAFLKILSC

SMILES | Ki (D(3) dopamine receptor) [nM] | Ki (D(2) dopamine receptor) [nM] | other results
CS(=O)(=O)Oc1ccc2c(c1)CN(CC[C@H]1CC[C@H](NC(=O)/C=C/c3ccc(F)cc3)CC1)C2 | 5.01 | 501 | clearance [1]: 14 mL/min/kg; Ki [2]: 5.01 µM; Ki [3]: > 7.94 µM; Ki [4]: > 5.01 µM; Ki [5]: 3.16 µM; Ki [6]: 1260 nM; Ki [7]: > 1000 nM; Ki [8]: > 10 µM; Ki [9]: > 3.98 µM; bioavailability [10]: 77%; half-life [11]: 312 min; pKb [12]: 8.3; Ki [13]: > 5.01 µM
O=C(/C=C/c1ccc(F)cc1)N[C@H]1CC[C@H](CCN2Cc3ccc(C(F)(F)F)cc3C2)CC1 | 10 | 398 | 
N#Cc1ccc2c(c1)CN(CC[C@H]1CC[C@H](NC(=O)c3cc4ccccc4[nH]3)CC1)C2 | 25.1 | 2510 | 
N#Cc1ccc2c(c1)CN(CC[C@H]1CC[C@H](NC(=O)/C=C/c3ccc(F)cc3)CC1)C2 | 12.6 | 631 | 
COc1cccc(/C=C/C(=O)N[C@H]2CC[C@H](CCN3Cc4ccc(C#N)cc4C3)CC2)c1 | 10 | 1000 | 
COc1ccc2c(c1)CN(CC[C@H]1CC[C@H](NC(=O)/C=C/c3ccc(F)cc3)CC1)C2 | 7.94 | 200 | 
N#Cc1ccc2c(c1)CN(CC[C@H]1CC[C@H](NC(=O)c3ccnc4ccccc34)CC1)C2 | 63.1 | 2510 | 
O=C(/C=C/c1ccc(F)cc1)N[C@H]1CC[C@H](CCN2Cc3ccc(Br)cc3C2)CC1 | 3.16 | 100 | 
